In US4198508A, “Process for preparing 4-substituted imidazo[1,2-a]quinoxalines” (Westwood Pharmaceuticals Inc., priority 1977, dated 1980):

Assays:
rat paw edema = rat paw edema assay, oral dosing; type: in vivo; details: four hours after drug
Description: The anti-inflammatory activity of representative compounds of this invention was determined by the rat paw edema assay both by local administration (Table XI below) and by oral dosing (Table XII below). For the oral dosing, the procedure of C. A. Winter, E. A. Risley and G. W. Nuss, Proc. Soc. Exp. Biol. Med. 111, 544 (1962) was employed with measurement taken four hours after the drug was administered. The local administration tests were carried out similarly except the irritant (carrageenan) and the test compound were injected simultaneously at time zero. Tables XI and XII report the anti-inflammatory activity of the compounds tested as % difference in the edema or swelling as compared with the control. These Tables also give the response in many instances of more than one dose level of the same drug.

[1] = test system: humeral or antibody response; test: hemolysin test in mice; type: in vivo, mouse; details: s.c., dose to reduce antibody activity by 50% versus control
[2] = test system: cell-mediated immune response to the antigen, Mycobacterium tuberculosis H37Ra; test: delayed hypersensitivity test; type: in vivo, mouse; details: mice, s.c.; dose to reduce edema of cell-mediated immune response by 60% versus control
Description: The immunosuppressant activities of the compounds of this invention were determined via the hemolysin test in mice and by the delayed hypersensitivity test. The hemolysin test used is that described in Methods in Immunology, edited by D. H. Campbell et al, W. A. Benjamin, New York 1963 pages 172-175, and measures humeral or antibody response. The delayed hypersensitivity test measures the effect of a test compound on the ability of a subject mouse to mount a cell-mediated immune response to the antigen, Mycobacterium tuberculosis H37Ra. The mouse is sensitized to the antigen by subcutaneous administration in the base of the tail. The development of the delayed hypersensitivity response may be measured at any time beginning six days after sensitization but is usually done on the ninth day as follows: The right hind paw is injected with purified protein derivative (tuberculin) while the left hind paw (control) receives physiological saline. Both paw volumes are measured after twenty-four hours and significant increase in the volume of the right hand paw is taken as a measure of an effective delayed hypersensitivity response. All compounds were administered by the subcutaneous route.
The D.H.S. (ED60) mg./kg. s.c. value appearing in column 3 is an expression of the effectiveness of the drug in reducing the edema that accompanies the cell-mediated immune response. […]

[3] = test system: Trichophyton mentagrophytes; test: antifungal activity, agar dilution method; type: cell-based, Trichophyton mentagrophytes (ATCC No. 8757 and 9129)
Description: (§1) Various compounds of this invention display antifungal and anti-yeast activity.
(§2) In Table IX below are listed the antifungal activity of a number of compounds encompassed in the present invention. These were determined by the agar dilution method as described in Chapters 2 and 3 of Methods in Microbiology, Vol. 7B, edited by J. R. Norris and D. W. Ribbons, Academic Press, New York, 1972.

Trichophyton ajelloi = test: antifungal activity, agar dilution method; type: cell-based
Description: as §1, §2

Trichophyton rubrum = test: antifungal activity, agar dilution method; type: cell-based, Trichophyton rubrum (ATCC No. 10218 and 14001)
Description: as §1, §2

SMILES	%Difference from Control (rat paw edema; 100 mg/kg)	%Difference from Control (rat paw edema; 400 mg/kg)	HL(ED50) [1]	D.H.S. (ED60) [2]	Parts Per Million Inhibitions of T. mentagrophytes [3]	Parts Per Million Inhibitions of T. ajelloi (Trichophyton ajelloi)	Parts Per Million Inhibitions of T. rubrum (Trichophyton rubrum)
FC(F)(F)c1cccc(-c2nc3ccccc3n3ccnc23)c1 [Compound 136]	-9%	-25%	2.7 mg/kg	> 50 mg/kg	100 Parts Per Million		
O=[N+]([O-])c1ccc(Nc2nc3ccccc3n3ccnc23)cc1 [Compound 189]						100 Parts Per Million	100 Parts Per Million
